# Reference: US20240300976A1, “COMPOUNDS AS MODULATORS OF ENDOPLASMIC RETICULUM AMINOPEPTIDASE 1 (ERAP1)” (GREY WOLF THERAPEUTICS LIMITED, priority 2020, published 2024)
# Target: T1, ERAP1 (Homo sapiens, UniProt Q9NZ08)
# T1 construct: Purified ERAP1(37-941)-10His (ERAP1); 10His (C)
# Assay: ERAP1 mediated hydrolysis of an amide substrate (10-mer inhibition assay), biochemical system
# Settings: 10-mer substrate, incubated at 23° C. for 1 h, excitation 279 nm and emission 355 nm; read-out: IC50 vs Decapeptide WRVYEKC(Dnp)ALK-acid (where Dnp is Dinitrophenyl maleimide) (10-mer)
# Excerpt: This peptide has minimal fluorescence as the N-terminal tryptophan residue's fluorescence is quenched by the dinitrophenol (DNP) residue within the peptide. However, as ERAP1 hydrolyses the N-terminal amide bond and tryptophan is released this internal quenching is lost and the reaction is monitored by the increase in tryptophan fluorescence over the course of the assay. For the purposes of this application this assay is referred to as the “1 Omer inhibition assay” and compound potencies are calculated and expressed as 1050 as would be familiar to a person skilled in the art.
# Biological Assay 1: ERAP1 Mediated Hydrolysis of an Amide Substrate Measured in a Biochemical System
# • 1× Assay buffer (AB): 25 mM Bis-tris propane, 0.05% w/v Hydroxypropylmethylcellulose pH 7.75 made with Optima grade water • Decapeptide WRVYEKC(Dnp)ALK-acid (where Dnp is Dinitrophenyl maleimide) (10-mer) • L-Leucine 7-amido-4-methylcoumarin (L-AMC) • Purified ERAP1(37-941)-10His (ERAP1)
# 12.5 μL ERAP1 enzyme in 1×AB was combined with 250 nL test compound in DMSO. 12.5 μL of either 240 μM L-AMC in 1×AB or 100 μM 10-mer in 1×AB was added to the reaction and incubated at 23° C. for 1 h. For detection, plates were read at excitation 365 nm and emission 442 nm (L-AMC) or excitation 279 nm and emission 355 nm (10-mer). Compound IC50 was determined using a 4-parameter equation.
# T1 sequence (Q9NZ08 37-941): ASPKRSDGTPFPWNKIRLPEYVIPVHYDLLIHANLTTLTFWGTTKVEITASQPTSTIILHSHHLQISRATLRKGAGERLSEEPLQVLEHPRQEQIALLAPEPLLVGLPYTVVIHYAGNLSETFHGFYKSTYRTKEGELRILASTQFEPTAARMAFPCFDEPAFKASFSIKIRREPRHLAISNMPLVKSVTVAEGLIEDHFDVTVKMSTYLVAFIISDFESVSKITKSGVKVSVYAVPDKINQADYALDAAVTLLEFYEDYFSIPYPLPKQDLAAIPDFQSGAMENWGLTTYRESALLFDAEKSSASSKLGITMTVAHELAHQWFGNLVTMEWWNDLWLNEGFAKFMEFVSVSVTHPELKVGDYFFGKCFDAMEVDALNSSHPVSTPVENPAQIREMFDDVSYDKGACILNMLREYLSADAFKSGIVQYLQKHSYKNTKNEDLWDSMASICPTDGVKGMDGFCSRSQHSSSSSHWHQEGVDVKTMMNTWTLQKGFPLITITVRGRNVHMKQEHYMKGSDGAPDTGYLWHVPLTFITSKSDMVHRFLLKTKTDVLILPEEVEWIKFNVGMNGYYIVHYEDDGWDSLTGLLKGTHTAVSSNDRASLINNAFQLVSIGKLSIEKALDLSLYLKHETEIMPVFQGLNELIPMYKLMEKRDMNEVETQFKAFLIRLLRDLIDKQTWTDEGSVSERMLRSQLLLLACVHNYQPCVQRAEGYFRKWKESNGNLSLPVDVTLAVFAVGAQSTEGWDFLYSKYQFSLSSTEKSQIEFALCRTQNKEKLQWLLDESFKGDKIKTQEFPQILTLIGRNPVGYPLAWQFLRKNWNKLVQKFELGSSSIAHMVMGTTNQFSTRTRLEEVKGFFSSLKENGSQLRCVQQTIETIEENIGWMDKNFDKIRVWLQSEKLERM
row,SMILES,IC50 [µM]
1,"N#Cc1cc2c(cc1Cl)N1CCCCC1CNCCOc1ccc(C(=O)O)cc1S(=O)(=O)N2 (racemic) [Example 66, 3-chloro-2-cyano-7,8,9,9a,10,11,12,13-octahydro-6H, 20H-dibenzo[b,f]pyrido[1,2-h][1]oxa[4]thia[5,8,11]triazacyclotridecine-17-carboxylic acid 19,19-dioxide]",> 1
2,"N#Cc1ccc2c(c1)NS(=O)(=O)c1cc(C(=O)O)ccc1OCCC1CCCCN21 (single isomer, unassigned) [Example 6, 2-cyano-7,8,9,9a,10,11-hexahydro-6H, 18H-dibenzo[b,f]pyrido[1,2-h][1]oxa[4]thia[5,8]diazacycloundecine-15-carboxylic acid 17,17-dioxide]",> 1
3,"N#Cc1ccc2c(c1)NS(=O)(=O)c1cc(C(=O)O)ccc1OCCC1CCCCN21 (single isomer, unassigned) [Example 7, 2-cyano-7,8,9,9a,10,11-hexahydro-6H, 18H-dibenzo[b,f]pyrido[1,2-h][1]oxa[4]thia[5,8]diazacycloundecine-15-carboxylic acid 17,17-dioxide]",> 1
4,"N#Cc1ccc2c(c1)NS(=O)(=O)c1cc(C(=O)O)ccc1OCC1CCCCN21 (single isomer, unassigned) [Example 11, 8-cyano-12,13,14,15,15a,16-hexahydro-6H-dibenzo[b,f]pyrido[1,2-h][1,4,5,8]oxathiadiazecine-3-carboxylic acid 5,5-dioxide]",0.25 to 1
5,"N#Cc1ccc2c(c1)NS(=O)(=O)c1cc(C(=O)O)ccc1OCCCCC1CCCCN21 (single isomer, unassigned) [Example 12, 2-cyano-7,8,9,9a,10,11,12,13-octahydro-6H,20H-dibenzo[b,f]pyrido[1,2-h][1]oxa[4]thia[5,8]diazacyclotridecine-17-carboxylic acid 19,19-dioxide]",0.25 to 1
6,"N#Cc1cc2c(cc1Cl)N1CCCCC1COc1ccc(C(=O)O)cc1S(=O)(=O)N2 (single isomer, unassigned) [Example 16, 9-chloro-8-cyano-12,13,14,15,15a,16-hexahydro-6H-dibenzo[b,f]pyrido[1,2-h][1,4,5,8]oxathiadiazecine-3-carboxylic acid 5,5-dioxide]",> 1
7,"CS(=O)(=O)c1ccc2c(c1)NS(=O)(=O)c1cc(C(=O)O)ccc1OCC1CCCCN21 (single isomer, unassigned) [Example 20, 8-(methylsulfonyl)-12,13,14,15,15a,16-hexahydro-6H-dibenzo[b,f]pyrido[1,2-h][1,4,5,8]oxathiadiazecine-3-carboxylic acid 5,5-dioxide]",> 1
8,"N#Cc1ccc2c(c1)NS(=O)(=O)c1cc(C(=O)O)ccc1OC/C=C/CC1CCCCN21 (single isomer, unassigned) [Example 33, (E)-2-cyano-7,8,9,9a,10,13-hexahydro-6H, 20H-dibenzo[b,f]pyrido[1,2-h][1]oxa[4]thia[5,8]diazacyclotridecine-17-carboxylic acid 19,19-dioxide]",> 1
9,"N#Cc1cc2c(cc1F)N1CCCCC1COc1ccc(C(=O)O)cc1S(=O)(=O)N2 (single isomer, unassigned) [Example 37, 8-cyano-9-fluoro-12,13,14,15,15a,16-hexahydro-6H-dibenzo[b,f]pyrido[1,2-h][1,4,5,8]oxathiadiazecine-3-carboxylic acid 5,5-dioxide]",> 1
10,"CS(=O)(=O)c1cc2c(cc1F)N1CCCCC1COc1ccc(C(=O)O)cc1S(=O)(=O)N2 (single isomer, unassigned) [Example 40, 9-fluoro-8-(methylsulfonyl)-12,13,14,15,15a,16-hexahydro-6H-dibenzo[b,f]pyrido[1,2-h][1,4,5,8]oxathiadiazecine-3-carboxylic acid 5,5-dioxide]",> 1

# Next, values leading:
row,IC50 [µM],SMILES
1,0.25 to 1,"CS(=O)(=O)c1cc2c(cc1F)N1CCCCC1CCCOc1ccc(C(=O)O)cc1S(=O)(=O)N2 (racemic) [Example 51, 3-fluoro-2-(methylsulfonyl)-6,7,8,9,9a,10,11,12-octahydro-19H-dibenzo[b,f]pyrido[1,2-h][1]oxa[4]thia[5,8]diazacyclododecine-16-carboxylic acid 18,18-dioxide]"
2,< 0.25,"N#Cc1cc2c(cc1Cl)N1CCCCC1COCCOc1ccc(C(=O)O)cc1S(=O)(=O)N2 (racemic) [Example 65, 3-chloro-2-cyano-6,7,8,9,9a,10,12,13-octahydro-20H-dibenzo[e,i]pyrido[1,2-k][1,4]dioxa[7]thia[8,11]diazacyclotridecine-17-carboxylic acid 19,19-dioxide]"
3,< 0.25,"N#Cc1ccc2c(c1)NS(=O)(=O)c1cc(C(=O)O)ccc1OCCCC1CCCCN21 (single isomer, unassigned) [Example 8, 2-cyano-6,7,8,9,9a,10,11,12-octahydro-19H-dibenzo[b,f]pyrido[1,2-h][1]oxa[4]thia[5,8]diazacyclododecine-16-carboxylic acid 18,18-dioxide]"
4,< 0.25,"N#Cc1ccc2c(c1)NS(=O)(=O)c1cc(C(=O)O)ccc1OCCCC1CCCCN21 (single isomer, unassigned) [Example 9, 2-cyano-6,7,8,9,9a,10,11,12-octahydro-19H-dibenzo[b,f]pyrido[1,2-h][1]oxa[4]thia[5,8]diazacyclododecine-16-carboxylic acid 18,18-dioxide]"
5,< 0.25,"N#Cc1ccc2c(c1)NS(=O)(=O)c1cc(C(=O)O)ccc1OCC1CCCCN21 (single isomer, unassigned) [Example 10, 8-cyano-12,13,14,15,15a,16-hexahydro-6H-dibenzo[b,f]pyrido[1,2-h][1,4,5,8]oxathiadiazecine-3-carboxylic acid 5,5-dioxide]"
6,< 0.25,"N#Cc1ccc2c(c1)NS(=O)(=O)c1cc(C(=O)O)ccc1OCCCCC1CCCCN21 (single isomer, unassigned) [Example 13, 2-cyano-7,8,9,9a,10,11,12,13-octahydro-6H,20H-dibenzo[b,f]pyrido[1,2-h][1]oxa[4]thia[5,8]diazacyclotridecine-17-carboxylic acid 19,19-dioxide]"
7,< 0.25,"N#Cc1cc2c(cc1Cl)N1CCCCC1COc1ccc(C(=O)O)cc1S(=O)(=O)N2 (single isomer, unassigned) [Example 17, 9-chloro-8-cyano-12,13,14,15,15a,16-hexahydro-6H-dibenzo[b,f]pyrido[1,2-h][1,4,5,8]oxathiadiazecine-3-carboxylic acid 5,5-dioxide]"
8,< 0.25,"CS(=O)(=O)c1ccc2c(c1)NS(=O)(=O)c1cc(C(=O)O)ccc1OCC1CCCCN21 (single isomer, unassigned) [Example 19, 8-(methylsulfonyl)-12,13,14,15,15a,16-hexahydro-6H-dibenzo[b,f]pyrido[1,2-h][1,4,5,8]oxathiadiazecine-3-carboxylic acid 5,5-dioxide]"
9,< 0.25,"N#Cc1cc2c(cc1Cl)N1CCCCC1CCCCOc1ccc(C(=O)O)cc1S(=O)(=O)N2 (single isomer, unassigned) [Example 26, 3-chloro-2-cyano-7,8,9,9a,10,11,12,13-octahydro-6H, 20H-dibenzo[b,f]pyrido[1,2-h][1]oxa[4]thia[5,8]diazacyclotridecine-17-carboxylic acid 19,19-dioxide]"
10,< 0.25,"N#Cc1cc2c(cc1Cl)N1CCCCC1CCCCOc1ccc(C(=O)O)cc1S(=O)(=O)N2 (single isomer, unassigned) [Example 27, 3-chloro-2-cyano-7,8,9,9a,10,11,12,13-octahydro-6H, 20H-dibenzo[b,f]pyrido[1,2-h][1]oxa[4]thia[5,8]diazacyclotridecine-17-carboxylic acid 19,19-dioxide]"
11,< 0.25,"N#Cc1ccc2c(c1)NS(=O)(=O)c1cc(C(=O)O)ccc1OC/C=C/CC1CCCCN21 (single isomer, unassigned) [Example 32, (E)-2-cyano-7,8,9,9a,10,13-hexahydro-6H, 20H-dibenzo[b,f]pyrido[1,2-h][1]oxa[4]thia[5,8]diazacyclotridecine-17-carboxylic acid 19,19-dioxide]"
12,< 0.25,"N#Cc1cc2c(cc1F)N1CCCCC1COc1ccc(C(=O)O)cc1S(=O)(=O)N2 (single isomer, unassigned) [Example 38, 8-cyano-9-fluoro-12,13,14,15,15a,16-hexahydro-6H-dibenzo[b,f]pyrido[1,2-h][1,4,5,8]oxathiadiazecine-3-carboxylic acid 5,5-dioxide]"
13,< 0.25,"CS(=O)(=O)c1cc2c(cc1F)N1CCCCC1COc1ccc(C(=O)O)cc1S(=O)(=O)N2 (single isomer, unassigned) [Example 39, 9-fluoro-8-(methylsulfonyl)-12,13,14,15,15a,16-hexahydro-6H-dibenzo[b,f]pyrido[1,2-h][1,4,5,8]oxathiadiazecine-3-carboxylic acid 5,5-dioxide]"
14,< 0.25,"N#Cc1cc2c(cc1F)N1CCCCC1CCCOc1ccc(C(=O)O)cc1S(=O)(=O)N2 (single isomer, unassigned) [Example 41, 2-cyano-3-fluoro-6,7,8,9,9a,10,11,12-octahydro-19H-dibenzo[b,f]pyrido[1,2-h][1]oxa[4]thia[5,8]diazacyclododecine-16-carboxylic acid 18,18-dioxide]"
